Legend:
rats = experiment: Rat tail immersion assay (noxious thermosensation, 55° C. water bath); type: in vivo; conditions: rat, morphine 6 mg/kg i.p. in saline, relative to vehicle
Procedure: Compounds were tested for their effects on noxious thermosensation using the tail immersion assay. Testing was performed one hour following oral administration of 100 μmol/kg of the compound in 10% ethanol/20% Tween-80/70% PEG-400 (2 mL/kg). Mophine (6 mg/kg) was administered interperitoneally (i.p.) using saline (2 mL/kg) as the vehicle. For testing, a circulating water bath was heated to 55° C. Thirty to sixty minutes post dosing, the rats were handled for a few seconds to calm them down and then cupped with their back against the testers hand at a slight angle with head facing away from tester. With rat in one hand and a 0.01 second stopwatch in the other hand, the tail was quickly immersed 6-8 cm in water bath or to a distance leaving 2-3 cm of tail out of water. The timer was started simultaneously. When the rat flinched or attempted withdrawal, timer was immediately stopped and the rat's tail was quickly removed from water bath. This response latency (in seconds) was recorded. Process was repeated 3 times with 3-4 minutes between readings for a final average.
For a given example, a percent increase in the average response latency (in seconds) for tail withdrawal relative to a vehicle control was determined % increase=[(tc−tv)/tv]×100%
tc=response time (in seconds) with oral dosing of compounds
tv=response time (in seconds) with oral dosing of vehicle
The % increases in tail withdrawal latency relative to vehicle control are divided into the following categories: […]

[1] = target: T1, human TRPV1 receptor (hTRPV1) (Homo sapiens (Human), UniProt Q8NER1); experiment: Capsaicin activation assay (FLIPR intracellular Ca2+); type: cell-based; conditions: inhibition of capsaicin-induced intracellular Ca2+ increase; compounds added 3 minutes prior to capsaicin; read-out: hTRPV1 cap. IC50
T1 sequence (Q8NER1 whole entry): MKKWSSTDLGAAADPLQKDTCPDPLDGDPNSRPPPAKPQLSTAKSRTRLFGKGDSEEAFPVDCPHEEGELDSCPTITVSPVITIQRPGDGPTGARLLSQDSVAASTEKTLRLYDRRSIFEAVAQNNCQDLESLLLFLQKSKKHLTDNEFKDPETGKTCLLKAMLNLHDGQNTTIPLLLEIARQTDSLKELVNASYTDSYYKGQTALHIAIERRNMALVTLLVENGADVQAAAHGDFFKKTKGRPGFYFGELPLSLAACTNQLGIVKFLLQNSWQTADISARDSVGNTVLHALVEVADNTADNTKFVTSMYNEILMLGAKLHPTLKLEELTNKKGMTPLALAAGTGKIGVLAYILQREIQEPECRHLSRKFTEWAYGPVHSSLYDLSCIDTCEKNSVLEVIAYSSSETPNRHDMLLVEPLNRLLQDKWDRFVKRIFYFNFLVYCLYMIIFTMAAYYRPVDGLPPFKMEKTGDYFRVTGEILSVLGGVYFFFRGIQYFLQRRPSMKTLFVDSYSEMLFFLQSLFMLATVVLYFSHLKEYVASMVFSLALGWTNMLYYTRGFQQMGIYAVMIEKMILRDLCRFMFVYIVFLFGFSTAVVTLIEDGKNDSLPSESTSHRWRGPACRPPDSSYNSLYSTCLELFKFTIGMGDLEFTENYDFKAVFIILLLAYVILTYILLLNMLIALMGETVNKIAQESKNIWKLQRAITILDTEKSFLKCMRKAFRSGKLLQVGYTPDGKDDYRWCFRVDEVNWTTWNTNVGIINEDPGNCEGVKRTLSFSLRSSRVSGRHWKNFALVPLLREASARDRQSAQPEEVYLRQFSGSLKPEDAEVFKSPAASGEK
Procedure: Dulbecco's modified Eagle medium (D-MEM) (with 4.5 mg/mL glucose) and fetal bovine serum were obtained from Hyclone Laboratories, Inc. (Logan, Utah). Dulbecco's phosphate-buffered saline (D-PBS) (with 1 mg/mL glucose and 3.6 mg/l Na pyruvate, without phenol red), L-glutamine, hygromycin B, and Lipofectamine® were obtained from Life Technologies (Grand Island, N.Y.). G418 sulfate was obtained from Calbiochem-Novabiochem Corp. (San Diego, Calif.). Capsaicin (8-methyl-N-vanillyl-6-nonenamide) was obtained from Sigma-Aldrich, Co. (St. Louis, Mo.). Fluo-4 AM (N-[4-[6-[(acetyloxy)methoxy]-2,7-difluoro-3-oxo-3H-xanthen-9-yl]-2-[2-[2-[bis[2-[(acetyloxy)methoxy]-2-oxyethyl]amino]-5-methylphenoxy]ethoxy]phenyl]-N-[2-[(acetyloxy)methoxy]-2-oxyethyl]-glycine, (acetyloxy)methyl ester) was purchased from Molecular Probes (Eugene, Oreg.).
(§1) The cDNAs for the human TRPV1 receptor (hTRPV1) were isolated by reverse transcriptase-polymerase chain reaction (RT-PCR) from human small intestine poly A+ RNA supplied by Clontech (Palo Alto, Calif.) using primers designed surrounding the initiation and termination codons identical to the published sequences (Hayes et al. Pain 2000, 88, 205-215). The resulting cDNA PCR products were subcloned into pCIneo mammalian expression vector (Promega) and fully sequenced using fluorescent dye-terminator reagents (Prism, Perkin-Elmer Applied Biosystems Division) and a Perkin-Elmer Applied Biosystems Model 373 DNA sequencer or Model 310 genetic analyzer. Expression plasmids encoding the hTRPV1 cDNA were transfected individually into 1321N1 human astrocytoma cells using Lipofectamine®. Forty-eight hours after transfection, the neomycin-resistant cells were selected with growth medium containing 800 μg/mL Geneticin (Gibco BRL). Surviving individual colonies were isolated and screened for TRPV1 receptor activity. Cells expressing recombinant homomeric TRPV1 receptors were maintained at 37° C. in D-MEM containing 4 mM L-glutamine, 300 μg/mL G418 (Cal-biochem) and 10% fetal bovine serum under a humidified 5% CO2 atmosphere.
The functional activity of compounds at the TRPV1 receptor was determined by measurement of intracellular Ca^2+ levels ([Ca^2]i) using the Fluorescence Imaging Plate Reader (FLIPR)^TETRA®. All compounds were tested over a 12-point one-third-log concentration range. Compound stocks, 10 mM, were prepared in DMSO, and diluted serially across a 384-well plate using a Bravo BenchCel workstation (Agilent Technologies, Santa Clara, Calif.). A stock concentration of capsaicin (10 mM) was made in DMSO, and diluted in D-PBS to a final concentration of 200 nM (4×). On the day prior to the experiment, recombinant HEK293 cells that stably express either human or rat TRPV1 (hTRPV1-3) were removed from tissue culture flasks and plated in growth medium into black-walled clear-bottom 384-well Biocoat™ poly-D-lysine assay plates (BD Biosciences, Bedford, Mass.) using a Multidrop® dispenser (ThermoScientific, Waltham, Mass.). On the day of the experiment, growth medium was removed, and the no-wash FLIPR® Calcium-4 dye (λEX=470-495 nm, λEM=515-575 nm; Molecular Devices, Sunnyvale, Calif.) was added to each well using the Multidrop® dispenser. Cells were incubated for 90-120 minutes in the dark at room temperature. Test compounds were added to the cells 3 minutes prior to the addition of 200 nM capsaicin (4×), and the final assay volume was 80 μL. Fluorescence readings were made at 1 to 5 second intervals over the course of the experimental run. The peak increase in relative fluorescence units (minus baseline) was calculated, and expressed as a percentage of the 50 nM capsaicin (control) response. Curve-fits of the data were solved using a four-parameter logistic Hill equation in GraphPad Prism® (GraphPad Software, Inc., San Diego, Calif.), and IC50 values (concentration of the test compounds that inhibits 50% of the intracellular Ca^2+ concentration increase induced by capasin) were calculated.

[2] = target: T1, human TRPV1 receptor (hTRPV1); experiment: Acid activation assay (pH 5.0, FLIPR intracellular Ca2+); type: cell-based; conditions: 37.5 μM compound, percentage of the maximal pH 5.0-induced response remaining; for remaining activity at 37.5 µM: read-out: hTRPV1 H+ (max % remain)
Procedure: Dulbecco's modified Eagle's medium (DMEM) with 4.5 mg/mL D-glucose, fetal bovine serum, L-glutamine, and 2-morpholinoethanesulfonic acid (MES) were purchased from Sigma-Aldrich Co. (St. Louis, Mo.). Dulbecco's phosphate-buffered saline (DPBS) with Ca^2+, Mg^2+, and 1 mg/mL D-glucose (pH 7.4), Geneticin®, 0.25% trypsin-1 mM EDTA, and penicillin-streptomycin were purchased from Invitrogen Corp. (Carlsbad, Calif.). The FLIPR® Calcium 4 assay kit was purchased from Molecular Devices (Sunnyvale, Calif.).
as §1, with “DMEM” for “D-MEM”
The functional activity of compounds at the TRPV1 receptor was determined by measurement of intracellular Ca^2+ levels ([Ca^2+]i) using the Fluorescence Imaging Plate Reader (FLIPR)^TETRA®. All compounds were tested over a 12-point one-half-log concentration range. Compound stocks, 10 mM, were prepared in DMSO, and diluted serially across a 384-well plate using a Bravo BenchCel workstation (Agilent Technologies, Santa Clara, Calif.).
On the day of the experiment growth medium was removed, and the no-wash FLIPR®Calcium-4 dye (λEX=470-495 nm, λEM=515-575 nm) was added to each well using the Multidrop® dispenser. Cells were incubated for 90-120 minutes in the dark at 25° C. Test compounds were dissolved in DMSO, and plates were prepared using an Agilent Bravo workstation (Agilent Technologies Inc., Santa Clara, Calif.). Compounds were added to the cells 3 minutes prior to the addition of a pH 5.0 solution. Reagents were delivered at a rate of 40 μL/sec, and the final assay volume was 80 μL. Acidic pH solutions were prepared by titration of DPBS/MES with 1 N HCl. The intensity of the fluorescence was captured and digitally transferred to an interfaced PC.

CN1CC[C@]23c4c5ccc(O)c4O[C@H]2[C@@H](O)C=C[C@H]3[C@H]1C5 [Morphine]
% Increase in Tail Withdrawal Latency (rats): +++ (greater than or equal to 25% increase)

CCC1(CC)C[C@@H](NC(=O)NCc2ccc(NS(C)(=O)=O)c(F)c2)c2cc(F)ccc2O1 [Example 18, N-{4-[({[(4R)-2,2-diethyl-6-fluoro-3,4-dihydro-2H-chromen-4-yl]carbamoyl}amino)methyl]-2-fluorophenyl}methanesulfonamide]
IC50 [1]: 2.15 µM
remaining activity at 37.5 µM [2]: 56%

CC1(C)C[C@@H](NC(=O)NCc2ccc(NS(C)(=O)=O)c(F)c2)c2ccc(C(F)(F)F)nc2O1 [Example 42, N-{4-[({[(4R)-2,2-dimethyl-7-(trifluoromethyl)-3,4-dihydro-2H-pyrano[2,3-b]pyridin-4-yl]carbamoyl}amino)methyl]-2-fluorophenyl}methanesulfonamide]
IC50 [1]: 32.8 µM
remaining activity at 37.5 µM [2]: 82%

CS(=O)(=O)Nc1ccc(CNC(=O)N[C@H]2CCOc3cc(OC(F)(F)F)ccc32)cc1F [Example 24, N-{2-fluoro-4-[({[(45)-7-(trifluoromethoxy)-3,4-dihydro-2H-chromen-4-yl]carbamoyl}amino)methyl]phenyl}methanesulfonamide]
IC50 [1]: > 37.5 µM
hTRPV1 H+ (max % remain) [2]: 77%

CS(=O)(=O)Nc1ccc(CNC(=O)N[C@@H]2CCOc3ccc(F)cc32)cc1F [Example 30, N-{2-fluoro-4-[({[(4R)-6-fluoro-3,4-dihydro-2H-chromen-4-yl]carbamoyl}amino)methyl]phenyl}methanesulfonamide]
IC50 [1]: > 37.5 µM
remaining activity at 37.5 µM [2]: 84%

CCC1(CC)C[C@@H](NC(=O)NCc2ccc(NS(C)(=O)=O)c(F)c2)c2ccc(Cl)c(Cl)c2O1 [Example 8, N-{4-[({[(4R)-7,8-dichloro-2,2-diethyl-3,4-dihydro-2H-chromen-4-yl]carbamoyl}amino)methyl]-2-fluorophenyl}methanesulfonamide]
IC50 [1]: 0.33 µM
remaining activity at 37.5 µM [2]: 24%

C[C@@]1(CF)C[C@@H](NC(=O)NCc2ccc(NS(C)(=O)=O)c(F)c2)c2ccc(Cl)cc2O1 [Example 39, N-{4-[({[(2S,4R)-7-chloro-2-(fluoromethyl)-2-methyl-3,4-dihydro-2H-chromen-4-yl]carbamoyl}amino)methyl]-2-fluorophenyl}methanesulfonamide]
IC50 [1]: 0.615 µM
remaining activity at 37.5 µM [2]: 41%

CC1(C)C[C@@H](NC(=O)NCc2ccc(NS(C)(=O)=O)c(F)c2)c2ccc(F)c(F)c2O1 [Example 29, N-{4-[({[(4R)-7,8-difluoro-2,2-dimethyl-3,4-dihydro-2H-chromen-4-yl]carbamoyl}amino)methyl]-2-fluorophenyl}methanesulfonamide]
IC50 [1]: 1.15 µM
remaining activity at 37.5 µM [2]: 27%

CC1(C)C[C@@H](NC(=O)NCc2ccc(NS(C)(=O)=O)c(F)c2)c2ccc(C(F)(F)F)cc2O1 [Example 9, N-{4-[({[(4R)-2,2-dimethyl-7-(trifluoromethyl)-3,4-dihydro-2H-chromen-4-yl]carbamoyl}amino)methyl]-2-fluorophenyl}methanesulfonamide]
IC50 [1]: 0.109 µM
remaining activity at 37.5 µM [2]: 70%

C[C@]1(CF)C[C@@H](NC(=O)NCc2ccc(NS(C)(=O)=O)c(F)c2)c2ccc(C(F)(F)F)cc2O1 [Example 38, N-{2-fluoro-4-[({[(2R,4R)-2-(fluoromethyl)-2-methyl-7-(trifluoromethyl)-3,4-dihydro-2H-chromen-4-yl]carbamoyl}amino)methyl]phenyl}methanesulfonamide]
IC50 [1]: 0.345 µM
remaining activity at 37.5 µM [2]: 63%

CC(C)(C)c1ccc2c(c1)CC[C@H]2NC(=O)NCc1ccc(NS(C)(=O)=O)c(F)c1 [Example 1, N-{4-[({[(1R)-5-tert-butyl-2,3-dihydro-1H-inden-1-yl]carbamoyl}amino)methyl]-2-fluorophenyl}methanesulfonamide]
IC50 [1]: 0.104 µM
remaining activity at 37.5 µM [2]: 22%

CS(=O)(=O)Nc1ccc(CNC(=O)N[C@@H]2CCc3cc(Cl)ccc32)cc1F [Example 3, N-{4-[({[(1R)-5-chloro-2,3-dihydro-1H-inden-1-yl]carbamoyl}amino)methyl]-2-fluorophenyl}methanesulfonamide]
IC50 [1]: 1.81 µM
remaining activity at 37.5 µM [2]: 86%

Source: patent publication US8796328B2, “TRPV1 antagonists” (AbbVie Inc., priority 2012, dated 2014)
